From ChEMBL document CHEMBL1152147, “Design at the atomic level: design of biaryloxazolidinones as potent orally active antibiotics” (Bioorg Med Chem Lett, 2008)
In brackets after ≈: the same amount, converted by molar mass.

Key:
Haemophilus influenzae [1] = assay: Antimicrobial activity against Haemophilus influenzae parent strain RD1 by NCCLS method; format: functional
Escherichia coli = assay: Inhibition of Escherichia coli translation; format: functional, organism-based
Streptococcus pneumoniae [2] = assay: Antimicrobial activity against mef (A) expressing Streptococcus pneumoniae 02J1175 by NCCLS method; format: functional
Enterococcus faecalis [3] = assay: Antimicrobial activity against Linezolid-resistant Enterococcus faecalis P5 by NCCLS method; format: functional
Streptococcus pyogenes [4] = assay: Antimicrobial activity against erm (B) expressing Streptococcus pyogenes Msr 610 by NCCLS method; format: functional
Haemophilus influenzae [5] = assay: Antimicrobial activity against Haemophilus influenzae 895 (AcrB-KO) by NCCLS method; format: functional
Haemophilus influenzae [6] = assay: Antimicrobial activity against Haemophilus influenzae A1950 by NCCLS method; format: functional
Haemophilus influenzae [7] = assay: Antimicrobial activity against Haemophilus influenzae 1100 by NCCLS method; format: functional
Haemophilus influenzae [8] = assay: Antimicrobial activity against Haemophilus influenzae by NCCLS method; format: functional
Streptococcus pyogenes [9] = assay: Antimicrobial activity against erm (B) Streptococcus pyogenes msr610 by NCCLS method; format: functional
Enterococcus faecalis [10] = assay: Antimicrobial activity against Linezolid-resistant Enterococcus faecalis ATCC 29212-P5 by NCCLS method; format: functional
Enterococcus faecalis [11] = assay: Antimicrobial activity against vanB+ expressing Enterococcus faecalis 1069 by NCCLS method; format: functional
Enterococcus faecium = assay: Antimicrobial activity against vanA+ expressing Enterococcus faecium A6349 by NCCLS method
Staphylococcus aureus = assay: Antimicrobial activity against methicillin-resistant Staphylococcus aureus 67-0 by NCCLS method; format: functional
Streptococcus pneumoniae [12] = assay: Antimicrobial activity against erm (B) expressing Streptococcus pneumoniae 02J1258 + L4 by NCCLS method; format: functional

Structure (SMILES) | MIC (Haemophilus influenzae [1]) [µg/mL] | IC50 (Escherichia coli) [nM] | MIC (Streptococcus pneumoniae [2]) [µg/mL] | MIC (Enterococcus faecalis [3]) [µg/mL] | MIC (Streptococcus pyogenes [4]) [µg/mL] | MIC (Haemophilus influenzae [5]) [µg/mL] | MIC (Haemophilus influenzae [6]) [µg/mL] | MIC (Haemophilus influenzae [7]) [µg/mL] | MIC (Haemophilus influenzae [8]) [µg/mL] | MIC (Streptococcus pyogenes [9]) [µg/mL] | MIC (Enterococcus faecalis [10]) [µg/mL] | MIC (Enterococcus faecalis [11]) [µg/mL] | MIC (Enterococcus faecium) [µg/mL] | MIC (Staphylococcus aureus) [µg/mL] | MIC (Streptococcus pneumoniae [12]) [µg/mL]
CC(=O)NC[C@H]1CN(c2ccc(-c3ccc(CNCc4ccnc5ccccc45)cc3)c(F)c2)C(=O)O1 | 8 (≈ 16 µM) | < 20 | 0.5 (≈ 1 µM) | 2 (≈ 4.01 µM) | 0.5 (≈ 1 µM) | 1 (≈ 2.01 µM) |  |  |  |  |  |  |  |  | 
CC(=O)NC[C@H]1CN(c2ccc(N3CCOCC3)c(F)c2)C(=O)O1 [LINEZOLID] | 16 (≈ 47.4 µM) | 4600 |  | 32 (≈ 94.9 µM) | 1 (≈ 2.96 µM) | 8 (≈ 23.7 µM) | 32 (≈ 94.9 µM) | 16 (≈ 47.4 µM) | 32 (≈ 94.9 µM) | 1 (≈ 2.96 µM) | 32 (≈ 94.9 µM) |  |  |  | 
CC(=O)NC[C@H]1CN(c2ccc(-c3ccc(Cn4cnnn4)cc3)c(F)c2)C(=O)O1 | 2 (≈ 4.87 µM) |  | 0.25 (≈ 0.609 µM) |  |  |  | 8 (≈ 19.5 µM) | 2 (≈ 4.87 µM) | 4 (≈ 9.75 µM) | 0.5 (≈ 1.22 µM) | 1 (≈ 2.44 µM) | 0.5 (≈ 1.22 µM) | 1 (≈ 2.44 µM) | 1 (≈ 2.44 µM) | 0.5
CC(=O)NC[C@H]1CN(c2ccc(-c3ccc(CNCc4ccncc4)cc3)c(F)c2)C(=O)O1 | 8 (≈ 17.8 µM) | 50 | 0.25 (≈ 0.557 µM) | 2 (≈ 4.46 µM) | 0.5 (≈ 1.11 µM) | 0.5 (≈ 1.11 µM) |  |  |  |  |  |  |  |  | 
CC(=O)NC[C@H]1CN(c2ccc(-c3ccc(CNCc4cnoc4)cc3)c(F)c2)C(=O)O1 | 2 (≈ 4.56 µM) |  | 0.125 (≈ 0.285 µM) |  |  |  | 8 (≈ 18.2 µM) | 1 (≈ 2.28 µM) | 4 (≈ 9.12 µM) | 0.125 (≈ 0.285 µM) | 2 (≈ 4.56 µM) | 0.5 (≈ 1.14 µM) | 1 (≈ 2.28 µM) |  | 0.125
CC(=O)NC[C@H]1CN(c2ccc(-c3ccc(CNCCCF)cc3)c(F)c2)C(=O)O1 | 2 (≈ 4.79 µM) |  | 0.125 (≈ 0.299 µM) |  |  |  | 4 (≈ 9.58 µM) | 2 (≈ 4.79 µM) | 4 (≈ 9.58 µM) | 0.125 (≈ 0.299 µM) | 2 (≈ 4.79 µM) | 0.5 (≈ 1.2 µM) | 1 (≈ 2.4 µM) | 1 (≈ 2.4 µM) | 0.125
CC(=O)NC[C@H]1CN(c2ccc(-c3ccc(Cn4ncnn4)cc3)c(F)c2)C(=O)O1 | 4 (≈ 9.75 µM) |  | 0.125 (≈ 0.305 µM) |  |  |  | 8 (≈ 19.5 µM) | 4 (≈ 9.75 µM) | 8 (≈ 19.5 µM) | 0.125 (≈ 0.305 µM) | 1 (≈ 2.44 µM) | ≤ 0.25 | 0.5 (≈ 1.22 µM) | 0.5 (≈ 1.22 µM) | 0.25
CC(=O)NC[C@H]1CN(c2ccc(-c3ccc(Cn4ccnn4)cc3)c(F)c2)C(=O)O1 | 4 (≈ 9.77 µM) |  | 0.5 (≈ 1.22 µM) |  |  |  | 8 (≈ 19.5 µM) | 2 (≈ 4.88 µM) | 4 (≈ 9.77 µM) | 0.5 (≈ 1.22 µM) | 1 (≈ 2.44 µM) | 0.5 (≈ 1.22 µM) | 1 (≈ 2.44 µM) | 0.5 (≈ 1.22 µM) | 0.25
CC(=O)NC[C@H]1CN(c2ccc(-c3ccc(CNCC#N)cc3)c(F)c2)C(=O)O1 | 4 (≈ 10.1 µM) |  | 0.25 (≈ 0.631 µM) |  |  |  | 8 (≈ 20.2 µM) | 4 (≈ 10.1 µM) | 8 (≈ 20.2 µM) | 0.25 (≈ 0.631 µM) | 1 (≈ 2.52 µM) | ≤ 0.25 | 1 (≈ 2.52 µM) | 0.5 (≈ 1.26 µM) | 0.25
CC(=O)NC[C@H]1CN(c2ccc(-c3ccc(CNCc4ccco4)cc3)c(F)c2)C(=O)O1 | 4 (≈ 9.14 µM) | 40 | 0.25 (≈ 0.571 µM) | 4 (≈ 9.14 µM) | 0.25 (≈ 0.571 µM) | 0.5 (≈ 1.14 µM) |  |  |  |  |  |  |  |  | 
CC(=O)NC[C@H]1CN(c2ccc(-c3ccc(CNCc4cnn[nH]4)cc3)c(F)c2)C(=O)O1 [RADEZOLID] | 0.5 (≈ 1.14 µM) |  | 0.25 (≈ 0.57 µM) |  |  |  | 1 (≈ 2.28 µM) | 0.25 (≈ 0.57 µM) | 1 (≈ 2.28 µM) | 0.125 (≈ 0.285 µM) | 1 (≈ 2.28 µM) | ≤ 0.25 | 0.5 (≈ 1.14 µM) | 1 (≈ 2.28 µM) | 0.25
